# Assays:
# Test in all cases: In vitro antibacterial evaluation: minimum inhibitory concentration (MIC), broth dilution method
# Type in all cases: cell-based
# Staphylococcus sp. = settings: for MIC Staphylococcus aureus (ATCC 29213): strain ATCC 29213; for MIC Staphylococcus aureus (GC 1131): strain GC 1131; for MIC Staphylococcus aureus (GC 3051): strain GC 3051; for MIC Staphylococcus aureus (GC 3053): strain GC 3053; for MIC Staphylococcus aureus (GC 4541): strain GC 4541; for MIC Staphylococcus aureus (GC 4542): strain GC 4542; for MIC Staphylococcus aureus (GC 4544): strain GC 4544; for MIC Staphylococcus aureus (GC 4545): strain GC 4545
# Description: (§1) The minimum inhibitory concentration (MIC), the lowest concentration of the antibiotic which inhibits growth of the test organism, is determined by the broth dilution method using Muller-Hinton II […] (Baltimore Biological Laboratories) following the recommendations of the National Committee for Clinical Laboratory Standards [Methods for dilution antimicrobial susceptibility tests for bacteria that grow aerobically, approved standard M7-A2, National Committee for Clinical Laboratory Standards, Villanova, Pa].
# (§2) An inoculum level of 5×10^5 CFU/mL, and a range of antibiotic concentrations (64-0.06 μg/mL) is used. […] The test organisms include a spectrum of Gram-positive bacteria comprised of Staphylococcus sp., Streptococcus sp. and Enterococcus sp. These organisms include recent clinical isolates that are resistant to methicillin, penicillin and/or vancomycin.
# Escherichia coli = settings: 5×10^5 CFU/mL, 18 hours at 35° C.
# Description: as §1, §2
# Streptococcus sp. = settings: broth dilution, 5×10^5 CFU/mL, 18 hours at 35° C.
# Description: as §1, §2
# Enterococcus sp. = settings: broth dilution, 5×10^5 CFU/mL, 18 hours at 35° C.
# Description: as §1, §2
# [1] = broth dilution, 5×10^5 CFU/mL, 18 hours at 35° C.
# [2] = broth dilution, 18 hours at 35° C.
# [3] = strain GC 4543, broth dilution, 18 hours at 35° C.
# [4] = strain GC 4546, broth dilution, 18 hours at 35° C.
# [5] = strain GC 4547, broth dilution, 18 hours at 35° C.
# [6] = strain GC 4548, broth dilution, 18 hours at 35° C.
# [7] = strain GC 4549, broth dilution, 18 hours at 35° C.
# [8] = strain GC 4551, broth dilution, 18 hours at 35° C.
smiles,measurement,setting,value
"CC(C)=CCCC(C)CC1OCC2OC(OC3C(CO)OC(Oc4ccc(CC5NC(=O)C(C(C)c6ccccc6)NC(=O)CNC(=O)C(CO)NC(=O)C(C(O)C6CNC(=N)N6C6OC(CO)C(O)C(O)C6O)NC(=O)C(C(O)C6CNC(=N)N6)NC5=O)cc4)C(O)C3O)C(O)C(O)C2O1 (stereo not drawn) [Example 126, Cyclo[glycyl-β-methylphenylalanyl-O-[4-O-[4,6-O-[3,7-dimethyloct-6-en-1-ylidene)hexopyranosyl]hexopyranosyl]tyrosyl-3-(2-iminoimidazolidin-4-yl)seryl-3-(3-hexopyranosyl-2-iminoimidazolidin-4-yl)serylseryl]]",MIC Coagulase Negative Staphylococcus (GC 4547),Staphylococcus sp.; [1],8 µg/mL
same,MIC Coagulase Negative Staphylococcus (GC 4548),Staphylococcus sp.; [1],8 µg/mL
same,MIC Coagulase Negative Staphylococcus (GC 4549),Staphylococcus sp.; [1],8 µg/mL
same,MIC Coagulase Negative Staphylococcus (GC 4551),Staphylococcus sp.; [1],8 µg/mL
same,MIC Coagulase Negative Staphylococcus (GC 6257),Staphylococcus sp.; [1],8 µg/mL
same,MIC Staphylococcus aureus-SMITH (GC 4543),Staphylococcus sp.; [1],8 µg/mL
same,MIC Staphylococcus haemolyticus (GC 4546),Staphylococcus sp.; [1],8 µg/mL
same,MIC Staphylococcus aureus (ATCC 29213),Staphylococcus sp.,8 µg/mL
same,MIC Staphylococcus aureus (ATCC 29213),Staphylococcus sp.; [2],8 µg/mL
same,MIC Staphylococcus aureus (GC 1131),Staphylococcus sp.,8 µg/mL
same,MIC Staphylococcus aureus (GC 1131),Staphylococcus sp.; [2],8 µg/mL
same,MIC Staphylococcus aureus (GC 3051),Staphylococcus sp.,8 µg/mL
same,MIC Staphylococcus aureus (GC 3051),Staphylococcus sp.; [2],8 µg/mL
same,MIC Staphylococcus aureus (GC 3053),Staphylococcus sp.,8 µg/mL
same,MIC Staphylococcus aureus (GC 3053),Staphylococcus sp.; [2],8 µg/mL
same,MIC Staphylococcus aureus (GC 4541),Staphylococcus sp.,8 µg/mL
same,MIC Staphylococcus aureus (GC 4541),Staphylococcus sp.; [2],8 µg/mL
same,MIC Staphylococcus aureus (GC 4542),Staphylococcus sp.,8 µg/mL
same,MIC Staphylococcus aureus (GC 4542),Staphylococcus sp.; [2],8 µg/mL
same,MIC Staphylococcus aureus-SMITH (GC 4543),Staphylococcus sp.; [3],8 µg/mL
same,MIC Staphylococcus aureus (GC 4544),Staphylococcus sp.,8 µg/mL
same,MIC Staphylococcus aureus (GC 4544),Staphylococcus sp.; [2],8 µg/mL
same,MIC Staphylococcus aureus (GC 4545),Staphylococcus sp.,8 µg/mL
same,MIC Staphylococcus aureus (GC 4545),Staphylococcus sp.; [2],8 µg/mL
same,MIC Staphylococcus haemolyticus (GC 4546),Staphylococcus sp.; [4],8 µg/mL
same,MIC Coagulase Negative Staphylococcus (GC 4547),Staphylococcus sp.; [5],8 µg/mL
same,MIC Coagulase Negative Staphylococcus (GC 4548),Staphylococcus sp.; [6],8 µg/mL
same,MIC Coagulase Negative Staphylococcus (GC 4549),Staphylococcus sp.; [7],8 µg/mL
same,MIC Coagulase Negative Staphylococcus (GC 4551),Staphylococcus sp.; [8],8 µg/mL
same,MIC Coagulase Negative Staphylococcus (GC 6257),"Staphylococcus sp.; strain GC 6257, broth dilution, 18 hours at 35° C.",8 µg/mL
same,MIC Escherichia coli (ATCC 25922),Escherichia coli,64 µg/mL
same,MIC Escherichia coli (GC 4559),Escherichia coli,64 µg/mL
same,MIC Escherichia coli (GC 4560),Escherichia coli,8 µg/mL
same,MIC Streptococcus agalactiae (GC 4564),Streptococcus sp.,1 µg/mL
same,MIC Streptococcus pneumoniae (GC 1894),Streptococcus sp.,<0.06 µg/mL
same,MIC Streptococcus pneumoniae (GC 4565),Streptococcus sp.,<0.06 µg/mL
same,MIC Streptococcus pneumonine (ATCC 6301),Streptococcus sp.,<0.06 µg/mL
same,MIC Streptococcus pyogenes (GC 4563),Streptococcus sp.,0.12 µg/mL
same,MIC Enterococccus avium (GC 4558),Enterococcus sp.,8 µg/mL
same,MIC Enterococccus faecalis (ATCC 29212),Enterococcus sp.,8 µg/mL
same,MIC Enterococccus faecalis (GC 2691),Enterococcus sp.,8 µg/mL
same,MIC Enterococccus faecalis (GC 3059),Enterococcus sp.,8 µg/mL
same,MIC Enterococccus faecalis (GC 4552),Enterococcus sp.,8 µg/mL
same,MIC Enterococccus faecalis (GC 4553),Enterococcus sp.,8 µg/mL
same,MIC Enterococccus faecalis (GC 4554),Enterococcus sp.,8 µg/mL
same,MIC Enterococccus faecalis (GC 6189),Enterococcus sp.,8 µg/mL
same,MIC Enterococccus faecium (GC 2243),Enterococcus sp.,8 µg/mL
same,MIC Enterococccus faecium (GC 4556),Enterococcus sp.,8 µg/mL
same,MIC Enterococccus faecium (GC 4557),Enterococcus sp.,8 µg/mL
same,MIC Enterococcus faecalis (GC 2242),Enterococcus sp.,8 µg/mL
CC(c1ccccc1)C1NC(=O)CNC(=O)C(CO)NC(=O)C(C(O)C2CNC(=N)N2C2OC(CO)C(O)C(O)C2O)NC(=O)C(C(O)C2CNC(=N)N2)NC(=O)C(Cc2ccc(OC3OC(CO)C(OC4OC5COC(C67CC8CC(CC(C8)C6)C7)OC5C(O)C4O)C(O)C3O)cc2)NC1=O (centres unmarked) [Example 127],MIC Coagulase Negative Staphylococcus (GC 4547),Staphylococcus sp.; [1],4 µg/mL
same,MIC Coagulase Negative Staphylococcus (GC 4548),Staphylococcus sp.; [1],2 µg/mL
same,MIC Coagulase Negative Staphylococcus (GC 4549),Staphylococcus sp.; [1],1 µg/mL
same,MIC Coagulase Negative Staphylococcus (GC 4551),Staphylococcus sp.; [1],2 µg/mL
same,MIC Staphylococcus aureus-SMITH (GC 4543),Staphylococcus sp.; [1],2 µg/mL
same,MIC Staphylococcus haemolyticus (GC 4546),Staphylococcus sp.; [1],2 µg/mL
same,MIC Staphylococcus aureus (ATCC 29213),Staphylococcus sp.,2 µg/mL
same,MIC Staphylococcus aureus (ATCC 29213),Staphylococcus sp.; [2],2 µg/mL
same,MIC Staphylococcus aureus (GC 1131),Staphylococcus sp.,4 µg/mL
same,MIC Staphylococcus aureus (GC 1131),Staphylococcus sp.; [2],4 µg/mL
same,MIC Staphylococcus aureus (GC 3051),Staphylococcus sp.,2 µg/mL
same,MIC Staphylococcus aureus (GC 3051),Staphylococcus sp.; [2],2 µg/mL
same,MIC Staphylococcus aureus (GC 3053),Staphylococcus sp.,2 µg/mL
same,MIC Staphylococcus aureus (GC 3053),Staphylococcus sp.; [2],2 µg/mL
same,MIC Staphylococcus aureus (GC 4541),Staphylococcus sp.,4 µg/mL
same,MIC Staphylococcus aureus (GC 4541),Staphylococcus sp.; [2],4 µg/mL
same,MIC Staphylococcus aureus (GC 4542),Staphylococcus sp.,2 µg/mL
same,MIC Staphylococcus aureus (GC 4542),Staphylococcus sp.; [2],2 µg/mL
same,MIC Staphylococcus aureus-SMITH (GC 4543),Staphylococcus sp.; [3],2 µg/mL
same,MIC Staphylococcus aureus (GC 4544),Staphylococcus sp.,4 µg/mL
same,MIC Staphylococcus aureus (GC 4544),Staphylococcus sp.; [2],4 µg/mL
same,MIC Staphylococcus aureus (GC 4545),Staphylococcus sp.,2 µg/mL
same,MIC Staphylococcus aureus (GC 4545),Staphylococcus sp.; [2],2 µg/mL
same,MIC Staphylococcus haemolyticus (GC 4546),Staphylococcus sp.; [4],2 µg/mL
same,MIC Coagulase Negative Staphylococcus (GC 4547),Staphylococcus sp.; [5],4 µg/mL
same,MIC Coagulase Negative Staphylococcus (GC 4548),Staphylococcus sp.; [6],2 µg/mL
same,MIC Coagulase Negative Staphylococcus (GC 4549),Staphylococcus sp.; [7],1 µg/mL
same,MIC Coagulase Negative Staphylococcus (GC 4551),Staphylococcus sp.; [8],2 µg/mL
same,MIC Escherichia coli (ATCC 25922),Escherichia coli,64 µg/mL
same,MIC Escherichia coli (GC 4559),Escherichia coli,64 µg/mL
same,MIC Escherichia coli (GC 4560),Escherichia coli,4 µg/mL
same,MIC Streptococcus agalactiae (GC 4564),Streptococcus sp.,<0.12 µg/mL
same,MIC Streptococcus pneumoniae (GC 1894),Streptococcus sp.,<0.12 µg/mL
same,MIC Streptococcus pneumoniae (GC 4565),Streptococcus sp.,<0.12 µg/mL
same,MIC Streptococcus pneumonine (ATCC 6301),Streptococcus sp.,<0.12 µg/mL
same,MIC Streptococcus pyogenes (GC 4563),Streptococcus sp.,0.25 µg/mL
same,MIC Enterococccus avium (GC 4558),Enterococcus sp.,2 µg/mL
same,MIC Enterococccus faecalis (ATCC 29212),Enterococcus sp.,2 µg/mL
same,MIC Enterococccus faecalis (GC 2691),Enterococcus sp.,4 µg/mL
same,MIC Enterococccus faecalis (GC 3059),Enterococcus sp.,2 µg/mL
same,MIC Enterococccus faecalis (GC 4552),Enterococcus sp.,4 µg/mL
same,MIC Enterococccus faecalis (GC 4553),Enterococcus sp.,4 µg/mL
same,MIC Enterococccus faecalis (GC 4554),Enterococcus sp.,4 µg/mL
same,MIC Enterococccus faecalis (GC 6189),Enterococcus sp.,2 µg/mL
same,MIC Enterococccus faecium (GC 2243),Enterococcus sp.,4 µg/mL
same,MIC Enterococccus faecium (GC 4556),Enterococcus sp.,4 µg/mL
same,MIC Enterococccus faecium (GC 4557),Enterococcus sp.,4 µg/mL
same,MIC Enterococcus faecalis (GC 2242),Enterococcus sp.,4 µg/mL
